According to PMC7714403 (JCI Insight, 2020):
Several values for one entry are separate records, joined by “and”; a condition that tells them apart may be missing. Identical values can stand only once. Like-named read-outs stand apart in the source and are kept apart here.

How the values were obtained:
Wnk1, Wnk2, Wnk4 = test: KiNativ, OCI cells live cell; assay type: cell-based, human; conditions: labeling site Activation Loop, peptide IGDLGLATLKR
MAP2K1 = MAP2K1 (Homo sapiens, UniProt Q02750); test: KiNativ, OCI cells live cell; assay type: cell-based; conditions: 2 h, labeling site Lys2, peptide […]
PKCd = PKCd (Homo sapiens, UniProt Q05655); test: KiNativ, OCI cells live cell; assay type: cell-based; conditions: 2 h, labeling site Other, peptide […]
p70S6K = p70S6K (Homo sapiens, UniProt P23443); test: KiNativ, OCI cells live cell; assay type: cell-based; conditions: 2 h, labeling site Lys2, peptide […]
RSK2 domain1 = molecular target: T1, RSK2 domain1 (Homo sapiens, UniProt P51812); test: KiNativ, OCI cells live cell; assay type: cell-based; conditions: 2 h
T1 construct: RSK2 domain1

GCK = molecular target: T2, GCK (Homo sapiens, UniProt Q12851); test: KdELECT binding assay; design: purchased Eurofins DiscoverX
T2 sequence (Q12851 1-820): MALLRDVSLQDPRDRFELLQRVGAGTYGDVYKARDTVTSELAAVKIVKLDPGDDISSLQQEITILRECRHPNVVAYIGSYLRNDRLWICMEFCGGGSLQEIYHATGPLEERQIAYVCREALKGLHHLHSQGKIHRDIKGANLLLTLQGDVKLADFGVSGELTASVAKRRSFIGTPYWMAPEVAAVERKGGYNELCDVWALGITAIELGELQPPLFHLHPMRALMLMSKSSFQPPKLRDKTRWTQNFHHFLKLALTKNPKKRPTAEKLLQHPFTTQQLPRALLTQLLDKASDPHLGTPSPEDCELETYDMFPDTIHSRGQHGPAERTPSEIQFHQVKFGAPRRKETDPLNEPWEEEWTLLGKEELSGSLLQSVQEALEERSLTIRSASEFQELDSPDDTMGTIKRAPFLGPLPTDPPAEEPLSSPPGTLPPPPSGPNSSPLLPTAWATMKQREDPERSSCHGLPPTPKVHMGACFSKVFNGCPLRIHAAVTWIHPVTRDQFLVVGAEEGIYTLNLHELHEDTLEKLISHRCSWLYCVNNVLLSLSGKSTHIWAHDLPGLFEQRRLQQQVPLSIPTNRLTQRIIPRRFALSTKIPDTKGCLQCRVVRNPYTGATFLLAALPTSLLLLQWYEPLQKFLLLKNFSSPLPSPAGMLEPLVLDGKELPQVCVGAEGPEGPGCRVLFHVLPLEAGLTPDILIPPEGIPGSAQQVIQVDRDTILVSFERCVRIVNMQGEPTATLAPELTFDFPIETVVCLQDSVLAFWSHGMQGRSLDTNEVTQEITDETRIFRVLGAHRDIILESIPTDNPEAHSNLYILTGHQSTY

NEK8 = NEK8 (Homo sapiens, UniProt Q86SG6); test: KiNativ, OCI cells live cell; assay type: cell-based; conditions: 2 h, labeling site Lys2, peptide […]
FLT3 ITD/F691L = FLT3 ITD/F691L (Homo sapiens, UniProt P36888, F691L/ITD); test: KdELECT binding assay
MST3, MST4, YSK1 = test: KiNativ, OCI cells live cell; assay type: cell-based, human; conditions: labeling site Activation Loop, peptide LADFGVAGQLTDTQIKR
CHK2 = CHK2 (Homo sapiens, UniProt O96017); test: KiNativ, OCI cells live cell; assay type: cell-based; conditions: 2 h
MAP3K1 = MAP3K1 (Homo sapiens, UniProt Q13233); test: KiNativ, OCI cells live cell; assay type: cell-based; conditions: 2 h, labeling site Lys2, peptide […]
PCTAIRE1 = PCTAIRE1 (Homo sapiens, UniProt Q00536); test: KiNativ, OCI cells live cell; assay type: cell-based; conditions: 2 h, labeling site Lys1, peptide […]
NEK9 = molecular target: T3, NEK9 (Homo sapiens, UniProt Q8TD19); test: KiNativ, OCI cells live cell; assay type: cell-based; conditions: 2 h
T3 sequence (Q8TD19 1-979): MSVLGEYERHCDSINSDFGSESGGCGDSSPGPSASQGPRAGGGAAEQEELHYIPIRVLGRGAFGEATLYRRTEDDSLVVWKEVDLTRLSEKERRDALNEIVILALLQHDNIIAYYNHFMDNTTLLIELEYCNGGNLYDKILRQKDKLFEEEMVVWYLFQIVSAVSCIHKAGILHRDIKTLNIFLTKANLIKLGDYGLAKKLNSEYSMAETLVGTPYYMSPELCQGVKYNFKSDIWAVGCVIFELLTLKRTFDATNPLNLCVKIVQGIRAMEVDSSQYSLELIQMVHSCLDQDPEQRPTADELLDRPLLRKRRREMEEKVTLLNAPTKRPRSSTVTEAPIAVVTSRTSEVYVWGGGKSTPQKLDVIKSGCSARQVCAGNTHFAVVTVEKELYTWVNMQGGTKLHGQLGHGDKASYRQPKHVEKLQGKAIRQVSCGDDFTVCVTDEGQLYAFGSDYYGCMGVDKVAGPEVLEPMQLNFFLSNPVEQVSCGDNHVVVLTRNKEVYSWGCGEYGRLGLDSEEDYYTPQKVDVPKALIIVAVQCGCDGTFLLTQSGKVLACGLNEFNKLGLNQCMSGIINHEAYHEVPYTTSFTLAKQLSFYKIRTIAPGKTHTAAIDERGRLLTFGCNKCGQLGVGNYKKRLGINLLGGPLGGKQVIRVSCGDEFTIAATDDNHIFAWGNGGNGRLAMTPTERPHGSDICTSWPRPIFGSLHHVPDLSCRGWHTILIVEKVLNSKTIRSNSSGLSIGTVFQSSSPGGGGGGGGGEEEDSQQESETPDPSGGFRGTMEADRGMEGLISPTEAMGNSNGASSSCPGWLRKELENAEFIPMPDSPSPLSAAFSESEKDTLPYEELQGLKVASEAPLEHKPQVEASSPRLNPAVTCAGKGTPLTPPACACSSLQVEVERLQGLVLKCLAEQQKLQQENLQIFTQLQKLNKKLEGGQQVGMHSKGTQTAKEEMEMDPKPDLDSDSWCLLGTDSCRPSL

FLT3 = molecular target: T4, FLT3 (Homo sapiens, UniProt P36888); test: KdELECT binding assay; conditions: FLT3 WT
T4 construct: purchased Eurofins DiscoverX

MAP3K2, MAP3K3 = test: KiNativ, OCI cells live cell; assay type: cell-based, human; conditions: labeling site Lys2, peptide DIKGANILR

In the case of `CN1CCN(Cc2ccc(Nc3ncc(Cl)c(Nc4ccccc4S(=O)(=O)N(C)C)n3)cc2)CC1` [TP-0903], the Inhibition (Wnk1, Wnk2, Wnk4) is reported as -23.7%, the inhibition at 0.1 µM (MAP2K1) is reported as 14.7% and the inhibition at 0.1 µM (PKCd) is reported as -22.5%. The inhibition at 0.1 µM (p70S6K) was 6.3%, the inhibition at 0.1 µM (RSK2 domain1; labeling site Activation Loop, peptide LTDFGLSKESIDHEKK) was 52.4% and the inhibition at 0.1 µM (RSK2 domain1; labeling site Lys1, peptide QLYAMKVLK) was 48.2%. For the same compound, the Kd (GCK) was 1.8 nM, the inhibition at 0.1 µM (NEK8) was -6.8% and the Kd (FLT3 ITD/F691L) was 1.9 nM. For the same compound, the Inhibition (MST3, MST4, YSK1) was -57.1%, the inhibition at 0.1 µM (CHK2; labeling site Lys1, peptide VAIKIISK) was 37.7% and the inhibition at 0.1 µM (CHK2; labeling site Lys2, peptide DLKPENVLLSSQEEDCLIK) was 37.1%. For the same compound, the inhibition at 0.1 µM (MAP3K1) was 57.6%, the inhibition at 0.1 µM (PCTAIRE1) was 94.6% and the inhibition at 0.1 µM (NEK9) was 37.9%. For the same compound, the inhibition at 0.1 µM (NEK9; OCI cells, live cell, labeling site Activation Loop, peptide LGDYGLAKK, read-out: Inhibition) was 39.6%, the inhibition at 0.1 µM (NEK9; OCI cells, live cell, labeling site Lys1, peptide RTEDDSLVVWKEVDLTR, read-out: Inhibition) was 40.8% and the Kd (FLT3) was 0.93 nM and < 5 nM. It also gave an Inhibition (MAP3K2, MAP3K3) of 21.4%.
